Reference: the NIST ThermoML archive (doi:10.1016/j.jct.2005.05.003)

Conditions: Liquid, Vibrating tube method

CO [methanol]
Conditions | mass density [kg/m3]
298.26 K, 235 kPa | 785.98
298.26 K, 5000 kPa | 790.69
298.26 K, 9999 kPa | 795.4
298.26 K, 15013 kPa | 799.88
298.26 K, 19987 kPa | 804.1
298.26 K, 25008 kPa | 808.17
298.26 K, 29997 kPa | 812.04
298.26 K, 34991 kPa | 815.76
298.26 K, 39981 kPa | 819.34
323.22 K, 270 kPa | 762.14
323.22 K, 4990 kPa | 767.53
323.22 K, 9984 kPa | 772.87
323.22 K, 14982 kPa | 777.91
323.22 K, 19989 kPa | 782.69
323.22 K, 24986 kPa | 787.21
323.22 K, 29995 kPa | 791.53
323.22 K, 34987 kPa | 795.64
323.22 K, 39993 kPa | 799.6
348.25 K, 366 kPa | 737.29
348.25 K, 4987 kPa | 743.46
348.25 K, 9986 kPa | 749.65
348.25 K, 14991 kPa | 755.42
348.25 K, 20004 kPa | 760.84
348.25 K, 25020 kPa | 765.94
348.25 K, 30013 kPa | 770.76
348.25 K, 34989 kPa | 775.32
348.25 K, 40000 kPa | 779.7
373.26 K, 534 kPa | 710.55
373.26 K, 4983 kPa | 717.67
373.26 K, 9990 kPa | 724.99
373.26 K, 14998 kPa | 731.69
373.26 K, 19985 kPa | 737.88
373.26 K, 24994 kPa | 743.68
373.26 K, 29997 kPa | 749.13
373.26 K, 35001 kPa | 754.27
373.26 K, 39996 kPa | 759.14
398.28 K, 934 kPa | 680.93
398.28 K, 4984 kPa | 689
398.28 K, 9998 kPa | 697.91
398.28 K, 14986 kPa | 705.88
398.28 K, 19987 kPa | 713.16
398.28 K, 24992 kPa | 719.87
398.28 K, 29991 kPa | 726.11
398.28 K, 35005 kPa | 731.99
398.28 K, 40004 kPa | 737.47
